The values below come from patent publication US20250026724A1, “(1,4,5-TRISUBSTITUTED 1H-PYRAZOL-3-YL)OXY-2-ALKYLTHIOALKYL ACIDS AND -ALKYL ACID DERIVATIVES, SALTS THEREOF AND USE THEREOF AS ACTIVE HERBICIDAL INGREDIENTS” (BAYER AKTIENGESELLSCHAFT, priority 2021, published 2025).

What all share (assay): Post-emergence herbicidal action, greenhouse pot trial
Common to all, as to assay type: in vivo

Assay [1] concerns Abutilon theophrasti (ABUTH). The conditions noted are these: visual rating after about 3 weeks; for pest or weed control at 80 g/ha / pest or weed control at 320 g/ha: Abutilon theophrasti, 504 h; for pest or weed control at 80 g/ha: read-out: Post-emergence effect at 80 g/ha against ABUTH in %; for pest or weed control at 320 g/ha: read-out: Post-emergence effect at 320 g/ha against ABUTH in %. As for the experimental part: (§1) Seeds of monocotyledonous and dicotyledonous weeds and crop plants are placed in sandy loam in plastic or organic planting pots, covered with soil and cultivated in a greenhouse under controlled growth conditions. 2 to 3 weeks after sowing, the trial plants are treated at the one-leaf stage. The compounds of the invention, formulated in the form of wettable powders (WP) or as emulsion concentrates (EC), are then sprayed onto the green parts of the plants as aqueous suspension or emulsion with addition of 0.5% additive at a water application rate equivalent to 600 l/ha. After about 3 weeks of keeping the trial plants in the greenhouse under optimum growth conditions, the effect of the preparations is rated visually in comparison to untreated controls. For example, 100% activity=the plants have died, 0% activity=like control plants.
(§2) Tables B1 to B14 below show the effects of selected compounds of the general formula (I) according to Table 1 on various harmful plants and at an application rate corresponding to 320 g/ha or lower, which were obtained by the trial procedure specified above. The appendices “a”, “b” and “c” give differentiation by dosage used with otherwise the same harmful plants tested.
(§3) As shown by results from Tables B1 to B19, inventive compounds of the general formula (I) in the case of post-emergence treatment have good herbicidal efficacy against harmful plants, for example Abutilon theophrasti (ABUTH), Alopecurus myosuroides (ALOMY), Amaranthus retroflexus (AMARE), Avena fatua (AVEFA), Digitaria sanguinalis (DIGSA), Echinochloa crus-galli (ECHCG), Bassia scoparia (KCHSC), Lolium rigidum (LOLRI), Matricaria inodora (MATIN), Pharbitis purpurea (PHBPU), Polygonum convolvulus (POLCO), Setaria viridis (SETVI), Veronica persica (VERPE) and Viola tricolor (VIOTR) at an application rate of 320 g of active substance or less per hectare, and good crop plant compatibility in the case of organisms such as Oryza sativa (ORYSA), Zea mays (ZEAMX), Brassica napus (BRSNW), Glycine max (GLXMA) and Triticum aestivum (TRZAS) at an application rate of 320 g or less per hectare.

Assay [2] deals with Alopecurus myosuroides (ALOMY). The conditions noted are these: Alopecurus myosuroides, 504 h, 320 g/ha, visual rating after about 3 weeks, read-out: Post-emergence effect at 320 g/ha against ALOMY in %. As for the experimental part:
as §1, §2, §3

For assay [3], the system named is Amaranthus retroflexus (AMARE). The conditions noted are these: visual rating after about 3 weeks; for pest or weed control at 80 g/ha / pest or weed control at 320 g/ha: Amaranthus retroflexus, 504 h; for pest or weed control at 80 g/ha: read-out: Post-emergence effect at 80 g/ha against AMARE in %; for pest or weed control at 320 g/ha: read-out: Post-emergence effect at 320 g/ha against AMARE in %. As for the experimental part: as §1, §2, §3

The test system of a further assay is Avena fatua (AVEFA). Particulars: 320 g/ha, visual rating after about 3 weeks; for pest or weed control at 320 g/ha: Avena fatua, 504 h, read-out: Post-emergence effect at 320 g/ha against AVEFA in %. As for the experimental part: as §1, §2, §3
A further assay has as its system Bassia scoparia (KCHSC). The conditions noted are these: 320 g/ha. As for the experimental part: as §1, §2, §3
Assay [4] relates to Digitaria sanguinalis (DIGSA). The conditions noted are these: visual rating after about 3 weeks; for pest or weed control at 320 g/ha: Digitaria sanguinalis, 504 h, read-out: Post-emergence effect at 320 g/ha against DIGSA in %. As for the experimental part: as §1, §2, §3
For assay [5], the system named is Echinochloa crus-galli (ECHCG). The conditions noted are these: visual rating after about 3 weeks; for pest or weed control at 80 g/ha / pest or weed control at 320 g/ha: Echinochloa crus-galli, 504 h; for pest or weed control at 80 g/ha: read-out: Post-emergence effect at 80 g/ha against ECHCG in %; for pest or weed control at 320 g/ha: read-out: Post-emergence effect at 320 g/ha against ECHCG in %. As for the experimental part:
as §1, §2, §3

The test system of assay [6] is Matricaria inodora (MATIN). The conditions noted are these: visual rating after about 3 weeks; for pest or weed control at 320 g/ha: read-out: Post-emergence effect at 320 g/ha against MATIN in %. As for the experimental part:
as §1, §2, §3

Assay [7] has as its system Pharbitis purpurea (PHBPU). The conditions noted are these: visual rating after about 3 weeks; for pest or weed control at 320 g/ha / pest or weed control at 80 g/ha: Ipomoea purpurea, 504 h; for pest or weed control at 320 g/ha: read-out: Post-emergence effect at 320 g/ha against PHBPU in %; for pest or weed control at 80 g/ha: read-out: Post-emergence effect at 80 g/ha against PHBPU in %. As for the experimental part: as §1, §2, §3

Assay [8] deals with Polygonum convolvulus (POLCO). The conditions noted are these: visual rating after about 3 weeks; for pest or weed control at 80 g/ha / pest or weed control at 320 g/ha: Fallopia convolvulus, 504 h; for pest or weed control at 80 g/ha: read-out: Post-emergence effect at 80 g/ha against POLCO in %; for pest or weed control at 320 g/ha: read-out: Post-emergence effect at 320 g/ha against POLCO in %. As for the experimental part:
as §1, §2, §3

The test system of the next assay is Setaria viridis (SETVI). The conditions noted are these: visual rating after about 3 weeks; for pest or weed control at 320 g/ha: Setaria viridis, 504 h, read-out: Post-emergence effect at 320 g/ha against SETVI in %. As for the experimental part:
as §1, §2, §3

For a further assay, the system named is Viola tricolor (VIOTR). Particulars: for pest or weed control at 320 g/ha / pest or weed control at 80 g/ha: Viola tricolor, 504 h, read-out: Post-emergence effect against VIOTR. As for the experimental part:
as §1, §2, §3

A further assay concerns Lolium rigidum (LOLRI). The conditions noted are these: Lolium rigidum, 504 h, 320 g/ha, visual rating after about 3 weeks, read-out: Post-emergence effect at 320 g/ha against LOLRI in %. As for the experimental part:
as §1, §2, §3

Setting [9] is: Tripleurospermum inodorum, 504 h, 320 g/ha.

On to `CSC(Oc1nn(-c2ncccc2F)c(-c2ccc(F)nc2)c1Br)C(=O)O` (single isomer, unassigned) [Example I-25], for which the “Post-emergence effect at 320 g/ha against ABUTH in %” value in [1] (320 g/ha) came to 90%. Further, the pest or weed control at 320 g/ha in assay [2] was found to be 90%. Also, the “Post-emergence effect at 320 g/ha against AMARE in %” value in assay [3] (320 g/ha) was determined as 90%. For the same compound, the pest or weed control at 80 g/ha turned out to be 90% in assay [3], 80% in [5] and 80% in [8]. Also, the “Post-emergence effect at 320 g/ha against AVEFA in %” value in the assay with Avena fatua (AVEFA) was 90%. Also, the “Post-emergence effect against KCHSC” value in the assay with Bassia scoparia (KCHSC) is on record as 90%. Further, in assay [4], the “Post-emergence effect at 80 g/ha against DIGSA in %” value is 80%. In assay [4] (320 g/ha), the “Post-emergence effect at 320 g/ha against DIGSA in %” value was determined as 90%. Besides, in [5] (320 g/ha), the “Post-emergence effect at 320 g/ha against ECHCG in %” value was found to be 90%. In addition, in assay [6] (320 g/ha), the “Post-emergence effect at 320 g/ha against MATIN in %” value stood at 80%. Further, the “Post-emergence effect at 80 g/ha against PHBPU in %” value in assay [7] (80 g/ha) is 90%. In addition, the “Post-emergence effect at 320 g/ha against PHBPU in %” value in [7] (320 g/ha) was 90%. Further, the “Post-emergence effect at 320 g/ha against POLCO in %” value in [8] (320 g/ha) was found to be 80%. Further, in the assay on Setaria viridis (SETVI) (320 g/ha), the “Post-emergence effect at 320 g/ha against SETVI in %” value was determined as 90%. Further, the “Post-emergence effect against VIOTR” value in the assay on Viola tricolor (VIOTR) (320 g/ha) worked out at 90%.

Turning to `CCOC(=O)C(Oc1nn(-c2ccccc2F)c(-c2ccc(F)nc2)c1Br)SC` (single isomer, unassigned) [Example I-30], the pest or weed control at 320 g/ha in assay [2] was 90%; in assay [4] (320 g/ha), 90%; in assay [5] (320 g/ha), 80%; in the assay on Lolium rigidum (LOLRI), 80%; in assay [6] (setting [9]), 80%; in assay [7] (320 g/ha), 80%. Further, the results for the pest or weed control at 320 g/ha in the assay on Setaria viridis (SETVI) (320 g/ha) and with Viola tricolor (VIOTR) (320 g/ha) were 80% and 90%, respectively. Also, the “Post-emergence effect at 80 g/ha against DIGSA in %” value in [4] came out at 80%. For the same compound, in [5], the pest or weed control at 80 g/ha was 80%.

Consider `COC(=O)C(Oc1nn(-c2ccccc2F)c(-c2ccc(F)nc2)c1Br)SC` (centres unmarked) [Example I-10], for which the pest or weed control at 80 g/ha in assay [1] amounted to 90%; in assay [3] it was 80%; in assay [5], 80%; in assay [6] (Tripleurospermum inodorum, 504 h, 80 g/ha, read-out: Post-emergence effect at 80 g/ha against MATIN in %) it was 80%; in assay [8], 80%; in the assay with Viola tricolor (VIOTR), 80%. The pest or weed control at 320 g/ha worked out at 90% in [1] (320 g/ha); 100% in [2]; 80% in assay [3] (320 g/ha); 90% in assay [4] (320 g/ha); 90% in assay [5] (320 g/ha); 90% with Lolium rigidum (LOLRI). Besides, the pest or weed control at 320 g/ha in assay [6] (setting [9]) amounted to 90%; in assay [7] (320 g/ha) it was 80%; in assay [8] (320 g/ha), 80%; in the assay on Setaria viridis (SETVI) (320 g/ha) it was 90%; in the assay on Viola tricolor (VIOTR) (320 g/ha), 90%. In assay [3] (20 g/ha), the “Post-emergence effect at 20 g/ha against AMARE in %” value was 80%. In assay [4], the “Post-emergence effect at 80 g/ha against DIGSA in %” value stood at 90%. For the same compound, in the assay on Setaria viridis (SETVI), the “Post-emergence effect at 80 g/ha against SETVI in %” value was 90%.

On to `CCOC(=O)C(Oc1nn(-c2ncccc2F)c(-c2ccc(F)nc2)c1Br)SC` (centres unmarked) [Example I-13], for which the pest or weed control at 80 g/ha in assay [1] worked out at 90%; in assay [3], 80%; in assay [5], 80%; in assay [7] (80 g/ha), 80%; in assay [8], 80%. Also, the pest or weed control at 320 g/ha in [1] (320 g/ha) came out at 90%; in [2], 80%; in assay [3] (320 g/ha), 90%; in the assay with Avena fatua (AVEFA) it was 90%; in assay [4] (320 g/ha), 90%; in [5] (320 g/ha) it was 90%. Also, the pest or weed control at 320 g/ha in the assay with Lolium rigidum (LOLRI) amounted to 90%; in [7] (320 g/ha) it was 80%; in assay [8] (320 g/ha) it was 90%; in the assay on Setaria viridis (SETVI) (320 g/ha), 90%; in the assay with Viola tricolor (VIOTR) (320 g/ha) it was 80%. The “Post-emergence effect at 80 g/ha against SETVI in %” value in the assay on Setaria viridis (SETVI) came out at 80%.

As to `CSC(Oc1nn(-c2ncccc2F)c(-c2ccc(F)nc2)c1Cl)C(=O)O` (centres unmarked) [Example I-31], the pest or weed control at 320 g/ha in [2] is 80%; in [3] (320 g/ha), 80%; in the assay on Avena fatua (AVEFA), 80%; in assay [4] (320 g/ha), 80%; in [5] (320 g/ha) it was 90%; in assay [6] (setting [9]), 80%. Moreover, the pest or weed control at 320 g/ha (in assay [7] (320 g/ha); in assay [8] (320 g/ha); in the assay on Setaria viridis (SETVI) (320 g/ha)) was 80% each time. In assay [5], the pest or weed control at 80 g/ha is 80%.

For the compound `COC(=O)C(Oc1nn(-c2ncccc2F)c(-c2ccc(F)nc2)c1Cl)SC` (centres unmarked) [Example I-56], the pest or weed control at 80 g/ha in assay [1] was found to be 80%; in assay [5], 90%; in assay [7] (80 g/ha), 90%; in [8], 80%; with Viola tricolor (VIOTR) it was 80%. The pest or weed control at 320 g/ha in assay [1] (320 g/ha) was 90%; in [2], 80%; with Avena fatua (AVEFA), 90%; with Bassia scoparia (KCHSC) (Bassia scoparia, 504 h, read-out: Post-emergence effect against KCHSC), 80%; in assay [4] (320 g/ha), 80%; in assay [5] (320 g/ha), 90%. Further, the pest or weed control at 320 g/ha with Lolium rigidum (LOLRI) came to 90%; in assay [6] (setting [9]), 80%; in assay [7] (320 g/ha) it was 90%; in [8] (320 g/ha), 90%; in the assay on Setaria viridis (SETVI) (320 g/ha), 90%; in the assay with Viola tricolor (VIOTR) (320 g/ha), 90%. In addition, in [7] (20 g/ha), the “Post-emergence effect at 20 g/ha against PHBPU in %” value is given as 80%.
